Results: patent publication US20170368148A1, “USES OF A PTHrP ANALOGUE IN REDUCING FRACTURE RISK” (RADIUS HEALTH, INC., priority 2015, published 2017)
Marks after values point to notes of the source that are not given here.

Experiments:
[1] = tested on: postmenopausal women with osteoporosis; test: ACTIVE phase 3 trial: fracture rates and fracture risk reduction, 18 months; assay type: in vivo, human; settings: abaloparatide 80 μg or teriparatide 20 μg daily SC
Method: The ACTIVE phase 3 fracture prevention trial was conducted for abaloparatide in postmenopausal women with osteoporosis who were otherwise healthy. The enrolled subjects were treated with 80 micrograms (μg) of abaloparatide, a matching placebo, or the approved daily dose of 20 μg of teriparatide for 18 months. The ACTIVE trial evaluated fracture rates, fracture risks, BMD, and bone turnover biomarkers (e.g., CTX and P1NP) in all patient groups.
Fracture risk reduction and hazard ratio (HR) were derived from Kaplan-Meier (KM) curve.
The ACTIVE pivotal Phase 3 fracture prevention trial for the PTHrP analogue abaloparatide, Study BA058-05-003 (see ClinicalTrials.gov), was a randomized, double-blind, placebo-controlled trial in postmenopausal osteoporotic women randomized to receive daily doses of one of the following for 18 months: 80 micrograms (μg) of abaloparatide; a matching placebo; or the approved daily dose of 20 μg of teriparatide. Treatment with abaloparatide at a daily dose of 80 μg or placebo remained blinded to all parties throughout the study. Teriparatide used was a proprietary prefilled drug and device combination that could not be repackaged. Therefore, its identity could not be blinded to treating physicians and patients once use began. Study medication was self-administered daily by subcutaneous injection for a maximum of 18 months. All enrolled patients also received calcium and vitamin D supplementation from the time of enrollment until the end of the treatment period. It was recommended to patients that they also continue these supplements through the one-month follow-up period.
The trial completed enrollment in March 2013 with 2,463 patients at 28 medical centers in 10 countries in the United States, Europe, Latin America, and Asia. The baseline characteristics of the selected patients are detailed in Table 3 below.
The study enrolled otherwise healthy ambulatory women aged 49 to 86 (inclusive) who had been postmenopausal for at least five years, met the study entry criteria, and had provided written informed consent. […] All patients were to be in good general health as determined by medical history, physical examination (including vital signs), and clinical laboratory testing. This study population contained a patient population reflective of the type of severe osteoporosis patients that specialists would be expected to treat in their practices.
As set forth in the ACTIVE protocol, the primary efficacy endpoint was the number of patients treated with abaloparatide with incident vertebral fractures at the end of treatment as compared to those who received placebo. The pre-specified secondary efficacy parameters included, among other endpoints, reduction in the incidence/risk of non-vertebral fractures; changes in BMD of the spine, hip, and femoral neck from baseline to end of treatment as assessed by DXA and as compared to teriparatide; and the number of hypercalcemic events in abaloparatide treated patients when compared to teriparatide at end of treatment.

[2] = tested on: postmenopausal women with osteoporosis; test: Phase 2 24-week dose-finding trial (48-week extension): BMD by DXA; assay type: in vivo, human
Text: Healthy postmenopausal women between the ages of 55 to 85 (based on a 5-year history of amenorrhea and an elevated serum level of FSH) were enrolled in the study if they met one of the following the following definitions of osteoporosis:
Dual X-ray absorptiometry: DXA scans were obtained at each local site and then sent to a central imaging reader (BioClinica Inc. Newton, PA) where they underwent a quality control review and then analyzed according to each manufacturers guidelines. Scans performed during the treatment period on the same instrument used for the baseline scan were acquired. Each study site performed Instrument Quality Control over time (instrument standardization and phantom calibration) that was reviewed by the central reader.
BMD was re-measured at the 48-week visit.

[3] = tested on: postmenopausal women with osteoporosis; test: Phase 2 24-week trial: serum biochemical markers of bone turnover; assay type: in vivo, human; settings: 24 weeks; 20 μg daily SC
Method: Biochemical Markers of bone turnover: Fasting morning blood samples (collected 24 hours after last injection if taking teriparatide) were obtained at each visit. Serum osteocalcin (OC) was measured via electrochemiluminescence assay (Roche Diagnostics, Basel, Switzerland), with […] coefficients of variation (CVs) of 1.8% and 4.8% respectively. Serum amino-terminal propeptide of type 1 procollagen (P1NP) was measured via radioimmunoassay (Orion Diagnostica, Espoo, Finland) with inter- and intra-assay CVs of 4.5% and 5.5% respectively. Serum β-c-terminal telopeptide of type one collagen (CTX) was measured via electrochemiluminescence assay (Roche Diagnostics, Basel, Switzerland) with inter- and intraassay CVs of 3.8% and 6.9% respectively.

[4] = tested on: postmenopausal osteoporotic women; test: Trabecular bone score (TBS) from spinal DXA, phase 2 trial; assay type: in vivo, human; settings: 20 μg daily SC
Text: To assess the effects of the PTHrP analogue abaloparatide on trabecular microarchitecture as indirectly assessed by TBS, the TBS (TBS Calculator v2.2, Medimaps group, Plan-les-Ouates, Geneva, Switzerland) in a blinded fashion at 0, 12, and 24-weeks in 222 postmenopausal osteoporotic women (age 55-85) who were randomized to receive 24-weeks of daily subcutaneous injections of placebo, abaloparatide 20-μg, abaloparatide 40-μg. abaloparatide 80-μg, or teriparatide (TPTD) 20-μg was retrospectively calculated. Between groups differences in the mean percent TBS changes were assessed by unpaired t-test.

[5] = tested on: postmenopausal women with osteoporosis; test: ACTIVE trial: adverse events; settings: 18 months; abaloparatide 80 μg (n = 822), teriparatide 20 μg (n = 818)
Method: Safety evaluations performed in the ACTIVE trial included physical examinations, vital signs, 12-lead electrocardiograms, or ECGs, clinical laboratory tests and monitoring, and recording of adverse events. Specific safety assessments included pre-dose and post-dose (four hours) determination of serum calcium, determination of creatinine clearance, post-dose ECG assessments at selected visits, and assessments of postural hypotension (60 minutes post-dose) at selected clinic visits.
The ACTIVE trial also evaluated several potential safety measures, including blood calcium levels, orthostatic hypotension, nausea, dizziness, and injection-site reactions.

[6] = tested on: postmenopausal women with osteoporosis; test: Phase 2 trial: safety, serum calcium, antibody formation; settings: 20 μg daily SC
Method: All subjects received supplemental calcium (500-1000 mg) and vitamin D (400-800 IU) per local practice. […] Blood calcium levels were assessed 4-hours and 24-hours after drug administration. Subjects were monitored for adverse events (AEs) and local tolerance at the injection site at each visit. Clinical and laboratory safety parameters, electrocardiograms, were also measured at each study visit.
Efficacy and safety were assessed using all randomized patients who received at least one dose of study drug. Baseline characteristics and safety parameters were summarized using descriptive statistics. […] All hypotheses were tested at the 2-sided 5% significance level.

[7] = 24 weeks, abaloparatide 80 μg, teriparatide 20 μg, valid-completers
[8] = 48 weeks (extension), 20 μg daily SC

SMILES: CC[C@H](C)[C@H](NC(=O)[C@H](CCC(=O)O)NC(=O)[C@H](CO)NC(=O)[C@@H](NC(=O)[C@@H](N)CO)C(C)C)C(=O)N[C@@H](CCC(N)=O)C(=O)N[C@@H](CC(C)C)C(=O)N[C@@H](CCSC)C(=O)N[C@@H](Cc1cnc[nH]1)C(=O)N[C@@H](CC(N)=O)C(=O)N[C@@H](CC(C)C)C(=O)NCC(=O)N[C@@H](CCCCN)C(=O)N[C@@H](Cc1cnc[nH]1)C(=O)N[C@@H](CC(C)C)C(=O)N[C@@H](CC(N)=O)C(=O)N[C@@H](CO)C(=O)N[C@@H](CCSC)C(=O)N[C@@H](CCC(=O)O)C(=O)N[C@@H](CCCN=C(N)N)C(=O)N[C@H](C(=O)N[C@@H](CCC(=O)O)C(=O)N[C@@H](Cc1c[nH]c2ccccc12)C(=O)N[C@@H](CC(C)C)C(=O)N[C@@H](CCCN=C(N)N)C(=O)N[C@@H](CCCCN)C(=O)N[C@@H](CCCCN)C(=O)N[C@@H](CC(C)C)C(=O)N[C@@H](CCC(N)=O)C(=O)N[C@@H](CC(=O)O)C(=O)N[C@H](C(=O)N[C@@H](Cc1cnc[nH]1)C(=O)N[C@@H](CC(N)=O)C(=O)N[C@@H](Cc1ccccc1)C(=O)O)C(C)C)C(C)C [teriparatide, hPTH(1-34)]
- Fracture Rate, incident clinical fractures [1]: 4.3%
- Fracture Rate, incident non-vertebral fractures [1]: 2.9%
- Fracture Rate, major osteoporotic fractures [1]: 2.8%
- Fracture Rate, wrist [1]: 2.1%
- Fracture Risk Reduction v. PBO, incident clinical fractures [1]: 29%
- Fracture Risk Reduction v. PBO, incident non-vertebral fractures [1]: 28%
- Fracture Risk Reduction v. PBO, major osteoporotic fractures [1]: 33%
- Fracture Risk Reduction v. PBO, wrist [1]: −13%
- Fracture rate, new vertebral fractures (excluding worsening) [1]: 0.84%
- Reduction of new vertebral fractures (excluding worsening) as compared to placebo [1]: 80%
- Fracture Risk Reduction v. PBO, incident clinical fractures ([1]; listed as TPTD): 29%
- Fracture Risk Reduction v. PBO, incident non-vertebral fractures ([1]; listed as TPTD): 28%
- Fracture Risk Reduction v. PBO, major osteoporotic fractures ([1]; listed as TPTD): 33%
- Fracture Risk Reduction v. PBO, incident non-vertebral fractures ([1]; listed as Teriparatide): 28%
- Femoral neck BMD increase ([2]; 24 weeks, 20 μg daily SC): 1.1±4.6%
- Lumbar spine BMD increase (±SD) ([2]; 24 weeks, 20 μg daily SC): 5.5±4.1%
- Total hip BMD increase ([2]; 24 weeks, 20 μg daily SC): 0.5±3.9%
- Percentage of subjects with a >3% BMD gain at the lumbar spine [2, 7]: 70%
- Percentage of subjects with a >3% total hip BMD gain [2, 7]: 16%
- Femoral neck BMD increase [2, 8]: 2.2%
- Lumbar spine BMD increase [2, 8]: 8.6%
- Total hip BMD increase [2, 8]: 1.3%
- CTX increase, median (interquartile range) [3]: 76 (13, 130) %
- P1NP increase, median (interquartile range) [3]: 98 (21, 184) %
- TBS mean percent change ([4]; 12 weeks): +1.5%
- TBS mean percent change ([4]; 24 weeks): +2.6%
- AE: Arthralgia [5]: 8.6%
- AE: Back pain [5]: 7.2%^‡
- AE: Constipation [5]: 4.2%
- AE: Dizziness [5]: 7.3%
- AE: Headache [5]: 6.2%
- AE: Hypercalcemia (serum albumin-corrected calcium value ≧10.7 mg/dL) [5]: 6.37%^†
- AE: Hypercalciuria [5]: 12.5%^‡
- AE: Hypertension [5]: 5.0%
- AE: Influenza [5]: 4.2%
- AE: Nasopharyngitis [5]: 6.5%
- AE: Nausea [5]: 5.1%^‡
- AE: Pain in extremity [5]: 5.1%
- AE: Palpitations [5]: 1.6%^‡
- AE: Upper respiratory tract infection [5]: 8.9%
- AE: Urinary tract infection [5]: 5.0%
- Highest serum calcium value obtained by any subject ([6]; 4-hours post-dose): 12.6 mg/dL
- Patients with serum calcium levels ≧10.5 mg/dL ([6]; 4-hours post-dose): 40%
- Patients with serum calcium levels ≧10.5 mg/dL ([6]; 24-hours after the last injection): 16%
- Highest serum calcium value obtained by any patient ([6]; 24-hours post-dose): 11.2 mg/dL
- Dizziness ([6]; 24 weeks): 4%
- Incidence of headache ([6]; 24 weeks): 13%
- Patients discontinued due to AEs ([6]; 24 weeks): 4%
- Proportion of patients that experienced TEAEs ([6]; 24 weeks): 78%
- TEAEs possibly or probably related to study treatment ([6]; 24 weeks): 29%
- Treatment-related TEAEs ([6]; extension to 48 weeks): 21%
